The values below come from ChEMBL document CHEMBL5390320, “Discovery of a Novel Benzodiazepine Series of Cbl-b Inhibitors for the Enhancement of Antitumor Immunity” (ACS Med Chem Lett, 2023).

Series [1] has as its target T1, E3 ubiquitin-protein ligase CBL-B (Homo sapiens, UniProt Q13191). The experiment in a line: Displacement of FAM-labeled probe from recombinant biotinylated Cbl-b (unknown origin) expressed in Escherichia coli BL21(DE3) Tuner cells by TR-FRET assay. For orientation: Time-resolved FRET reads energy transfer from a long-lived donor to a nearby acceptor.
The nature of series [2]: Lipophilicity, log D of the compound in octanol and sodium phosphate buffer at pH 7.4 incubated for 3 hrs under shaking condition by shake flask method based LC-MS/MS analysis. Type of series: physicochemical.
Series [3] addresses T1, E3 ubiquitin-protein ligase CBL-B. The experiment in a line: Inhibition of Cbl-b in cryo-preserved human CD3-positive T cells assessed as increase in IL-2 production preincubated for 1 hr followed by alpha-CD3 coated stimulation for 24 hrs by flow cytometry method. The class given is cell-based, CD3-positive T cell.
The target in series [4] is T2, Cholecystokinin receptor type A (Homo sapiens, UniProt P32238).
T2 sequence (P32238 whole entry): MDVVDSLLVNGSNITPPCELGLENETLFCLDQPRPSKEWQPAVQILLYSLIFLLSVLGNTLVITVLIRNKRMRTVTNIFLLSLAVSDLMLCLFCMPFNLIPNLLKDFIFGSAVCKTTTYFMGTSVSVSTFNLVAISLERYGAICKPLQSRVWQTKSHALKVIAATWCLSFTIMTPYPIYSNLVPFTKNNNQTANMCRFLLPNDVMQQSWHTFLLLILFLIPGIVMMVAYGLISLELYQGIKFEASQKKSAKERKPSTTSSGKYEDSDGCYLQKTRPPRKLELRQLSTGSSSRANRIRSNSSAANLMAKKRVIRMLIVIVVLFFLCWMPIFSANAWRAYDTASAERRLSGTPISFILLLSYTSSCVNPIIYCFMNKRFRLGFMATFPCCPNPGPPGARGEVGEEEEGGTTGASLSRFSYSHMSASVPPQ
The series can be described thus: Displacement of […] from human CCKA receptor expressed in CHO cell membrane incubated for 60 mins by scintillation counter method. Type of series: toxicity, cell membranes.

For series [5], the target named is T1, E3 ubiquitin-protein ligase CBL-B. The series can be described thus: Binding affinity to avidin-biotinylated Cbl-b at (36 to 427 residues) (unknown origin) assessed as dissociation constant by SPR analysis.
Series [6] shares this target. The series can be described thus: Inhibition of recombinant Cbl-b (unknown origin) mediated ZAP70 ubiquitination incubated for 60 mins by TR-FRET assay.
The target is the same in series [7]. The experiment in a line: Inhibition of recombinant Cbl-b (unknown origin) ubiquitination incubated for 60 mins in presence of ATP by TR-FRET assay.

Broadly, the IC50 is the midpoint of a concentration-inhibition curve. By logD is commonly meant lipophilicity at a set pH, counting ionised and neutral species. The term EC50 denotes the concentration that produces a half-maximal response. One may read the Ki as a dissociation constant, usually derived from enzyme kinetics or from competition with a known ligand. By Kd is commonly meant the free concentration of one partner at which half of the binding sites on the other are occupied at equilibrium, for simple one-to-one binding.

The structures appear in SMILES notation.

T1 sequence (Q13191 whole entry): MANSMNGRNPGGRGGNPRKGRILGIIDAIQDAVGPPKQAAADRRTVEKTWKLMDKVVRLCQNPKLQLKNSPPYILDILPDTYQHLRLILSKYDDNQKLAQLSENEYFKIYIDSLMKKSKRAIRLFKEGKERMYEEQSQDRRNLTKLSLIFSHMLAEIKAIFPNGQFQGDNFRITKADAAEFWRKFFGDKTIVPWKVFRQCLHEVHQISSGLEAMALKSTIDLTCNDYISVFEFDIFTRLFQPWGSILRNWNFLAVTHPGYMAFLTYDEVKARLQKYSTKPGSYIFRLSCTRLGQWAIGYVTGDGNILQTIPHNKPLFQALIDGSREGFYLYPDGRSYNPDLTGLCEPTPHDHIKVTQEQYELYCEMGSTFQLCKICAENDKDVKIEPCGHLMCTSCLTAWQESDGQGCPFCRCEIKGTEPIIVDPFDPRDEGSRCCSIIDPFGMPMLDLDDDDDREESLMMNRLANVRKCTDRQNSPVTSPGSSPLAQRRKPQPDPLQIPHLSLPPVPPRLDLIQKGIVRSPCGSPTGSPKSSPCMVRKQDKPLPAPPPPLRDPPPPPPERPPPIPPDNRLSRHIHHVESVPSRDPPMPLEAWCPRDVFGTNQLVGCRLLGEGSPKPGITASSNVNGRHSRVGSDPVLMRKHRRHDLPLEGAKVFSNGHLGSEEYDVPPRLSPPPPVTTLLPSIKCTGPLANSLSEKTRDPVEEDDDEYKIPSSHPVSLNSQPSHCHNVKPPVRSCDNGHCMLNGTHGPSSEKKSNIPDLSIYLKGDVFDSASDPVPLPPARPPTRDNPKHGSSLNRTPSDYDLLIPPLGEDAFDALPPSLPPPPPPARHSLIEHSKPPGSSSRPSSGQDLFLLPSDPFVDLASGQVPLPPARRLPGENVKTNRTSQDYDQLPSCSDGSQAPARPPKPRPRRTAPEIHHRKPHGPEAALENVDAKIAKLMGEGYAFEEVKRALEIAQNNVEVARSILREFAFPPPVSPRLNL

As for `C[C@H]1CN(Cc2ccccc2C(=O)N[C@H]2N=C(c3ccccc3)c3ccc(C(=O)N4CCN(C)C(=O)C4)cc3NC2=O)CCO1`, the IC50 in series [1] worked out at 0.013 µM. This compound also registered a logD at 3 h in series [2] of 2.5. Besides, in series [3], the EC50 turned out to be 1.65 µM. This compound also registered a Ki in series [4] greater than 100 µM.

In the case of `O=C(NC1N=C(c2ccccc2)c2ccccc2NC1=O)c1ccccc1CN1CCn2nncc2C1` (racemic), the IC50 in series [1] came out at 0.3 µM. The compound further came in with a pH-dependent lipophilicity (logD) at 3 h in series [2] of 2.9.

As for `O=C(N[C@H]1N=C(c2ccccc2)c2ccccc2NC1=O)c1ccccc1CN1CCOCC1`, the IC50 in series [1] came out at 0.094 µM. Also, in series [2], the logD at 3 h worked out at 3.9.

Turning to `Cn1ncc2c1CN(Cc1ccccc1C(=O)NC1N=C(c3ccccc3)c3ccccc3NC1=O)C2` (racemic), the IC50 in series [1] came to 0.35 µM. In addition, the logD at 3 h in series [2] stood at 3.8.

As to `C[C@@H]1CN(Cc2ccccc2C(=O)NC2N=C(c3ccccc3)c3ccccc3NC2=O)C[C@H](C)O1` (mixture of isomers), the IC50 in series [1] came to 1.8 µM. The compound also registered a logD at 3 h in series [2] of 4.3.

For the compound `COCCNC(=O)c1ccc2c(c1)NC(=O)[C@@H](NC(=O)c1ccccc1CN1CCO[C@@H](C)C1)N=C2c1ccccc1`, the IC50 in series [1] was found to be 0.013 µM. The compound also registered a logD at 3 h in series [2] of 3.7. Besides, in series [3], the EC50 came to 2.61 µM. The Ki in series [4] is 24.3 µM.

`C[C@@H]1CN(Cc2ccccc2C(=O)N[C@H]2N=C(c3ccccc3)c3ccccc3NC2=O)CCO1`: the IC50 in series [1] worked out at 0.01 µM. The logD at 3 h in series [2] is 4.1. The EC50 in series [3] is greater than 30 µM. The compound also displayed a Ki in series [4] of 2.63 µM.

Consider `O=C(NC1N=C(c2ccccc2)c2ccccc2NC1=O)c1ccccc1CN1CCCCC1` (racemic), for which, in series [1], the IC50 is greater than 100 µM.

As to `O=C(NC1N=C(c2ccccc2)c2ccccc2NC1=O)c1ccccc1CN1CCn2nccc2C1` (racemic), the IC50 in series [1] was found to be 0.71 µM. In addition, the logD at 3 h in series [2] turned out to be 3.9.

Regarding `O=C(NC1N=C(c2ccncc2)c2ccccc2NC1=O)c1ccccc1CN1CCOCC1` (racemic), the IC50 in series [1] amounted to 2 µM. Further, the logD at 3 h in series [2] was 2.6.

With `C[C@@H]1COCCN1Cc1ccccc1C(=O)NC1N=C(c2ccccc2)c2ccccc2NC1=O` (mixture of isomers), the IC50 in series [1] amounted to 4.8 µM. Besides, the logD at 3 h in series [2] was found to be 3.9.

Regarding `O=C(NC1N=C(c2ccccc2)c2ccccc2NC1=O)c1cnccc1CN1CCOCC1` (racemic), the IC50 in series [1] was 1.3 µM. Moreover, the log distribution coefficient (logD) at 3 h in series [2] came to 2.7.

As to `O=C(NC1N=C(c2ccccc2)c2ccccc2NC1=O)c1sccc1CN1CCOCC1` (racemic), in series [1], the IC50 is 0.36 µM. The compound further showed a logD at 3 h in series [2] of 3.3.

As for `C[C@@H]1CN(Cc2ccccc2C(=O)NC2N=C(c3ccccc3)c3ccccc3NC2=O)CCO1` (mixture of isomers), the IC50 in series [1] came to 0.031 µM. The logD at 3 h in series [2] was 4.1.

On to `O=C(NC1N=C(c2ccccc2)c2ccccc2NC1=O)c1ccccc1CN1CCOCC1` (racemic), for which the IC50 in series [1] is 0.21 µM. Moreover, in series [2], the logD at 3 h came out at 3.8. In addition, in series [5], the Kd amounted to 0.4 µM.

With `C[C@H]1CCCN(Cc2cc3c(c(C(F)(F)F)c2)CN(c2cccc([C@]4(c5nncn5C)C[C@@H](C)C4)c2)C3=O)C1`, the IC50 in series [1] came out at 0.009 µM. In series [5], the dissociation constant Kd is 0.003 µM.

As to `C[C@H]1COCCN1Cc1ccccc1C(=O)NC1N=C(c2ccccc2)c2ccccc2NC1=O` (mixture of isomers), the IC50 in series [1] amounted to 1.9 µM. The compound also gave a logD at 3 h in series [2] of 4.

Take `O=C(NC1N=C(c2ccc[nH]c2=O)c2ccccc2NC1=O)c1ccccc1CN1CCOCC1` (racemic): the IC50 in series [1] is 20 µM. Moreover, the logD at 3 h in series [2] came out at 1.2.

Consider `O=C(NC1N=C(c2cc[nH]c(=O)c2)c2ccccc2NC1=O)c1ccccc1CN1CCOCC1` (racemic), for which the IC50 in series [1] is 11 µM. In series [2], this compound registered a logD at 3 h of 1.7.

Regarding `CC1(C)CN(Cc2ccccc2C(=O)NC2N=C(c3ccccc3)c3ccccc3NC2=O)CCO1` (racemic), in series [1], the IC50 amounted to 3.9 µM. In series [2], this compound displayed a logD at 3 h of 4.3.

In the case of `O=C(N[C@@H]1N=C(c2ccccc2)c2ccccc2NC1=O)c1ccccc1CN1CCOCC1`, the IC50 in series [1] worked out at 8 µM. This compound also came in with a logD at 3 h in series [2] of 3.9.

Take `C[C@H]1CN(Cc2ccccc2C(=O)N[C@H]2N=C(c3ccccc3)c3ccncc3NC2=O)CCO1`: the results for the IC50 in series [6], in series [1] and in series [7] were 37.2 µM, 0.015 µM and 50.5 µM, respectively. For the same compound, in series [2], the logD at 3 h turned out to be 3.3. The EC50 in series [3] amounted to 0.41 µM. Also, the Ki in series [4] is greater than 100 µM.

For `O=C(NC1N=C(c2ccccc2)c2ccccc2NC1=O)c1ccoc1CN1CCOCC1` (racemic), the IC50 in series [1] is 1.5 µM. The same compound showed a logD at 3 h in series [2] of 3.1.

On to `C[C@H]1CN(Cc2ccccc2C(=O)N[C@H]2N=C(c3ccccc3)c3ccccc3NC2=O)CCO1`, for which the concentration for half-maximal inhibition (IC50) in series [1] worked out at 0.013 µM. Moreover, the logD at 3 h in series [2] turned out to be 4.1. The EC50 in series [3] is 14 µM. Moreover, the affinity in series [4] corresponds to a Ki of 3.72 µM.

In the case of `O=C(NC1N=C(c2ccccc2)c2ccccc2NC1=O)c1ccccc1N1CCOCC1` (racemic), in series [1], the IC50 is greater than 100 µM.

For the compound `C[C@H]1CN(Cc2ccccc2C(=O)NC2N=C(c3ccccc3)c3ccccc3NC2=O)CCO1` (mixture of isomers), the IC50 in series [1] came out at 0.026 µM. In series [2], this compound gave a logD at 3 h of 4.2.
